Measured values as given in patent US20240115545A1, “PHARMACEUTICAL COMPOSITION CONTAINING B-LAPACHONE AS ACTIVE INGREDIENT FOR PREVENTION OR TREATMENT OF CHOLESTATIC LIVER DISEASE” (CUROME BIOSCIENCES CO., LTD., priority 2020, published 2024).

Assays:
[1] = tested on: DDC-induced cholestatic liver disease mice; experiment: Blood indexes (ALT, AST, ALP, bilirubin), DDC and β-lapachone given together for 7 days (Example 3.1); format: in vivo
Experimental: DDC-induced cholestatic liver disease mouse animal models were prepared according to the method of Elisa Pose et al. by using 8-week-old C57BL/6 male mice (Samtako, Korea). Briefly, cholestatic liver disease was induced by feeding a standard rodent diet supplemented with 0.1% (w/w) DDC for 7 or 14 days. The 12-hour light and dark cycle was maintained and animals were allowed to free access to water. The standard rodent diet included medium wheat, wheat, corn, and corn gluten flour, and soybean oil (14% protein). All animal related procedures were reviewed and approved by the Institutional Animal Care and Use Committee of Korea Research Institute of Bioscience and Biotechnology (KRIBB), KRIBB-AEC-20165).
To investigate the effect of β-lapachone (BL) on the occurrence of cholestatic liver disease, both […] and β-lapachone were administered to mice to characterize animal models.
(§1) After 8-week-old C57BL/6 male mice (Samtako, Korea) were divided into each group (=6), the mice were fed a diet with normal (vehicle), control (DDC), DDC+β-lapachone 20 mg/kg, DDC+β-lapachone 40 mg/kg, DDC+β-lapachone 80 mg/kg, DDC+β-lapachone 100 mg/kg, and positive control DDC+ursodeoxycholic acid 100 mg/kg, and DDC+obeticholic acid 30 mg/kg (total 7 days). After 7 days of treatment, the mice were sacrificed and then the blood was collected from the heart. Thereafter, the levels of alanine aminotransferase (ALT), aspartate aminotransferase (AST), alkaline phosphatase (ALP), and bilirubin, which are blood indexes, were analyzed, and shown in FIG. 4.

[2] = tested on: LX-2 hepatic stellate cell line; experiment: Fibronectin and α-SMA protein expression in TGF-β1-treated LX-2 hepatic stellate cells (immunoblotting); format: cell-based; settings: LX-2 cells, 1 ng/ml TGF-β1 + 0.5 or 1 μM β-lapachone, 24 hours
Experimental: Considering that inflammation and fibrosis of bile ducts cause cirrhosis in cholestatic liver disease, experiments were performed on the LX-2 hepatic stellate cell line model by using the method of Takaaki Higashi et al. (2017). The LX-2 cell line was subcultured in DMEM containing 10% FBS, 2 mM glutamine, 100 U penicillin, and 0.1 mg/ml streptomycin. The LX-2 cell line was added into a 6-well plate at a density of 16×10^4 cells/well, and cultured in DMEM containing 1 ng/ml TGF-β1, 1 ng/ml TGF-β1+0.5 μM β-lapachone or 1 ng/ml TGF-β1+1 μM β-lapachone for 24 hours. Thereafter, the protein expression levels of the fibrosis-related genes fibronectin and α-SMA of the obtained cells were measured by protein immunoblotting according to a conventional method known in the art.

[3] = tested on: DSS-induced inflammatory bowel disease mice; experiment: Survival rate, body weight and colitis score in DSS-induced acute colitis mice (Example 6.1); format: in vivo; settings: for mice died: 14th day of the experiment (DSS alone 70%)
Experimental: Dextran sodium sulfate (DSS)-induced acute colitis mouse models were constructed using 8-week-old C57BL/6 female mice (Samtako, Korea).
After 8-week-old C57BL/6 female mice (Samtako, Korea) were divided into each group (=10), each experimental group was fed a standard rodent diet supplemented with 3% (w/w) DSS in drinking water for the first 5 days to induce acute colitis and orally administered control (vehicle), β-lapachone 40 mg/kg, and β-lapachone 80 mg/kg for 14 days.
All animal-related procedures were discussed and approved by the Institutional Animal Care and Use Committee of the Hanyang University. The survival rate over time is shown in FIG. 9, and the change rate in body weight of mice in each experimental group was measured and shown in FIG. 10A. The fecal occult bleeding per rectum, total bleeding loss, and fecal concentration were measured daily.

macrophage line Raw264.7 = experiment: IL-1β and TNF-α release (ELISA) from LPS and ATP treated Raw264.7 macrophages; format: cell-based; settings: Raw264.7, LPS 100 ng/ml, 0.2, 0.5, 1, 2 μM β-lapachone 24 hours, ATP 2.5 mM 30 minutes
Experimental: The macrophage line Raw264.7 (ATCC TIB-71, Manassas, VA, USA) was subcultured in DMEM supplemented with 10% FBS and 1% penicillin/streptomycin.
For inflammation induction, RAW264.7 cells were suspended in DMEM containing 2% FBS, inoculated in a 12-well plate to a cell number of 4×10^5/ml, and incubated in 5% CO2 incubator at 37° C. for 24 hours. With replacement with fresh media, the cells were treated with appropriate concentrations of a corresponding substance, LPS (100 ng/ml), and 0.2, 0.5, 1, and 2 μM β-lapachone, cultured for 24 hours, treated with ATP (2.5 mM), and then cultured for additional 30 minutes, and the supernatant was collected. The release of cytokines (IL-1β and TNF-α) of RaW264.7 macrophages was quantified using each cell-free supernatant-ELISA set (Invitrogen, Billerica, MA, USA) by Invitrogen according to the manufacture's instruction, and is shown in FIG. 14.

fibrosis-related genes = experiment: mRNA levels of fibrosis-related genes in liver tissue (Example 3.2); format: in vivo, mice; settings: β-lapachone with DDC in diet, 7 days; depending on the concentration
Experimental: as §1
After the cholestatic liver disease mouse animal models in Example 3.1 were sacrificed and the liver tissue was harvested therefrom, the mRNA levels of fibrosis-related genes were measured by a method similar to the method in Example 2.3.
In the cholestatic liver disease mouse models, the bile ducts were damaged and fibrosis was induced, by DDC, and accordingly, the transcriptional levels of collagen type 1 alpha 1 (Co|1α1), transforming growth factor beta 1 (TGF-β1), and collagen type I alpha 2 (Co|1α2), which are important factors in the development of fibrosis, were investigated, and the results are shown in FIG. 5.

[4] = 20, 40, 80, 100 mg/kg in diet with DDC, depending on the concentration

CC1(C)CCC2=C(O1)c1ccccc1C(=O)C2=O [β-lapachone]
ALP in the blood increased by DDC [1, 4]: inhibited
ALT in the blood increased by DDC [1, 4]: inhibited
AST in the blood increased by DDC [1, 4]: inhibited
bilirubin in the blood increased by DDC [1, 4]: inhibited
effect on blood indexes compared with positive controls ([1]; vs ursodeoxycholic acid 100 mg/kg and obeticholic acid 30 mg/kg): excellent effects compared with ursodeoxycholic acid (UDCA) and obeticholic acid (OCA)
protein expression level of fibronectin increased by TGF-β1 [2]: reduced depending on the concentration
protein expression level of α-SMA increased by TGF-β1 [2]: reduced depending on the concentration
mice died ([3]; 40 mg/kg orally for 14 days): 50%
body weight recovered, relative to initial body weight ([3]; 80 mg/kg orally (DSS alone reduced to 75% on Day 8)): up to 90%
mice died ([3]; 80 mg/kg orally for 14 days): 20%
colitis score ([3]; 40 and 80 mg/kg orally, 14 days): reduced depending on the treatment concentration
body weight reduction by DSS ([3]; groups treated with β-lapachone 40 and 80 mg/kg orally): inhibited
expression level of IL-1β protein increased by LPS and ATP (macrophage line Raw264.7): reduced depending on the concentration
expression level of TNF-α protein increased by LPS and ATP (macrophage line Raw264.7): reduced depending on the concentration
transcriptional level of Co|1α1 in liver (fibrosis-related genes): inhibited
transcriptional level of Co|1α2 in liver (fibrosis-related genes): inhibited
transcriptional level of TGF-β1 in liver (fibrosis-related genes): inhibited
